Measured values as given in patent publication US20150342954A1, “2-BENZYL, 3-(PYRIMIDIN-2-YL) SUBSTITUTED PYRAZOLES USEFUL AS SGC STIMULATORS” (IRONWOOD PHARMACEUTICALS, INC., priority 2011, published 2015).
Like-named read-outs stand apart in the source and are kept apart here.

How the values were obtained:
[1] = biological target: T1, Human soluble guanylate cyclase enzyme (hsGC) (Homo sapiens, UniProt Q02108+Q02153); assay: Purified human sGC enzyme synergy assay in the presence of 1 μM sodium nitroprusside (SNP); type: biochemical; conditions: compound at 30 μM, presence of 1 μM SNP; Table 5A
T1 construct: purchased Enzo Inc. ALX-201-177
T1 sequence (Q02153 1-619): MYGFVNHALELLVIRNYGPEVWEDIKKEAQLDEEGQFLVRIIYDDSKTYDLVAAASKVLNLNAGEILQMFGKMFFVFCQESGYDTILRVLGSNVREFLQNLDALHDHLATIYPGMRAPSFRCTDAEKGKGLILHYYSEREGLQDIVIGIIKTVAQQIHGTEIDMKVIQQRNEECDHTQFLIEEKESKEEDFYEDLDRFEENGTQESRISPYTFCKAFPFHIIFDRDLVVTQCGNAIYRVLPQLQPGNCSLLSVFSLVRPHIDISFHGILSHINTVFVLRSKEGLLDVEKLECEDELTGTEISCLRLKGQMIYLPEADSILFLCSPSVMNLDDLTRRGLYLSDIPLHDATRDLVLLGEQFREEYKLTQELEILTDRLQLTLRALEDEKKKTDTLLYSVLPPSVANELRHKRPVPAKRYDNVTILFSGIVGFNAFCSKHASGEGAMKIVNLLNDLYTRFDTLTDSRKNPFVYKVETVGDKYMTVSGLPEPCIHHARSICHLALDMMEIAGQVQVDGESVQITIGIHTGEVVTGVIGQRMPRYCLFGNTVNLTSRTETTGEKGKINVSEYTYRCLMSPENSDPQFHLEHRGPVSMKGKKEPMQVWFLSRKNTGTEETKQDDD
T1 sequence (Q02108 1-690): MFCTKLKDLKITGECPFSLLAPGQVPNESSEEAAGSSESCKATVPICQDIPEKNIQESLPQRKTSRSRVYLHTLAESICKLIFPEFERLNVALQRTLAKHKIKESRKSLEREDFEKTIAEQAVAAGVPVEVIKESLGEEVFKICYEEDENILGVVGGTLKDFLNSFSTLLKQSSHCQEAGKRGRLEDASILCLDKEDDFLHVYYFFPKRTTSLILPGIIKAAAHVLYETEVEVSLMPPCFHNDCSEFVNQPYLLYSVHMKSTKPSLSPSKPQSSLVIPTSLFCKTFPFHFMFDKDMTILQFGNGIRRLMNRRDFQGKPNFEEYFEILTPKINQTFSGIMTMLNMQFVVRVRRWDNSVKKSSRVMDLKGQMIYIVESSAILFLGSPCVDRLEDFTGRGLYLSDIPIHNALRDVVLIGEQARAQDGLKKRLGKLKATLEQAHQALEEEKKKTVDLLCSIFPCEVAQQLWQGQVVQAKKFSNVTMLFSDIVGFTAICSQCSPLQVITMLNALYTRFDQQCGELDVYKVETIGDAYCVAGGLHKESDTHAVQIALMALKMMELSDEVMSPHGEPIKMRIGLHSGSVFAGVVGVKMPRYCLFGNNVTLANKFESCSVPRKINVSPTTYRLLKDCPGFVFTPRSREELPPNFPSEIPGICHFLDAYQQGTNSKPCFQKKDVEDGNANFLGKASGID
Method: (§1) Human soluble guanylate cyclase enzyme (hsGC) obtained from Enzo Inc. (P/N: ALX-201-177) was used to evaluate the activity of test compounds. The assay reactions contained 0.1 M Tris (pH 8.0), 0.5 mg/mL BSA (pH 8.0), 2 mM DTT, 2 mM MgCl2, 300 μM GTP, 1 mM 3-isobutyl-1-methylxanthine (IBMX) and 5 ng human soluble guanylate cyclase enzyme. Test compounds in DMSO were then added (2 μL, 10 or 30 μM final concentration) and incubated (200 μL, 96-well plate format) at 37° C. for 30 minutes. The controls were carried out using 2 μL DMSO. After the 30 minute incubation, the reaction was stopped with the addition of 200 μl of cold methanol. The plate was then centrifuged at 3,200 rpm for 10 minutes at room temperature. Supernatants (200 μL) were collected and transferred to a new 96 well plate for analysis.
(§2) An 8 point cGMP (Sigma-Aldrich P/N: G6129) standard curve was prepared in assay buffer ranging from 0.156-20 μM. Samples for the cGMP standard curve were then diluted with an equal volume of methanol resulting in final cGMP concentrations of 0.078-10 μM.
(§3) The cGMP standard curve was generated using GraphPad Prism Software.
(§4) Calculations: Specific Activity was determined by the amount of cGMP formed (nmoles) per mg of sGC per min. Enzyme “fold-change” was calculated by dividing Specific Activity for test compounds by Specific Activity of DMSO controls.
Biological Measurement by the Purified Human sGC Enzyme Synergy Performed in the Presence of Sodium Nitroprusside (SNP), a Nitric Oxide Donor
Enzyme assays were performed as described above, but was done in the absence or presence of 1 μM sodium nitroprusside (SNP).

[2] = biological target: T1, Human soluble guanylate cyclase enzyme (hsGC); assay: Purified human sGC enzyme activity assay (without SNP); type: biochemical; conditions: compound at 30 μM, absence of SNP; fold over DMSO control; Table 5A
Method: Biological Activity Measurements by the Purified Human sGC Enzyme Activity Assay
as §1, §2, §3, §4

[3] = biological target: T2, soluble guanylate cyclase (sGC) (Homo sapiens, UniProt Q02108+Q02153); assay: sGC-HEK-cGMP assay (run with SNP incubation); type: cell-based; conditions: for Emax: Table 3A, 10 μM SNP, 100% = 30 μM BAY 41-2272 with 10 μM SNP, read-out: HEK assay Emax-unconstrained (Percent); for HEK MEC-10: concentration that would elicit 10% of the Emax in the presence of 10 μM SNP; for HEK MEC-10 / EC50: Table 3D; for EC50: in the presence of 10 μM SNP
T2 construct: endogenously expressing soluble guanylate cyclase (sGC); endogenous in cells; host or cells: HEK293
T2 sequence (Q02153 1-619): T1 sequence (Q02153 1-619)
T2 sequence (Q02108 1-690): T1 sequence (Q02108 1-690)
Method: Biological Activity Measurement by the sGC-HEK-cGMP Assay
(Assay Run with SNP Incubation)
Human embryonic kidney cells (HEK293), endogenously expressing soluble guanylate cyclase (sGC), were used to evaluate the activity of test compounds. Compounds stimulating the sGC receptor should cause an increase in the intracellular concentration of cGMP. HEK 293 cells were seeded in Dulbecco's Modification of Eagle's Medium supplemented with fetal bovine serum (10% final) and L-glutamine (2 mM final) in a 2004 volume at a density of 1×10^5 cells/well in a poly-D-lysine coated 96 well flat bottom plate and grown overnight at 37° C. Medium was aspirated and cells were washed with 1× Hank's Buffered Saline Salt Solution (2004). Cells were then incubated for 15 minutes at 37° C. with 0.5 mM 3-isobutyl-1-methylxanthine (2004). Test article and sodium nitroprusside were then added to the assay mixture (24 each) and incubated at 37° C. for 10 minutes. After the 10 minute incubation, the assay mixture was aspirated and 0.1M HCl (2004) was added to the cells. The plate was incubated at 4° C. for 30 minutes in the 0.1M HCl to stop the reaction and lysed the cells. The plates were then centrifuged at 1,200 g for 5 minutes at room temperature. Supernatants were collected and transferred to a new flat bottom 96 well plate for analysis. Vehicle controls were carried out using DMSO (1%). A known sGC stimulator, BAY 41-2272, was used as the positive control. Samples were diluted with an equal volume of 1 M Ammonium Acetate (pH 7) to neutralize samples for better chromatography. A 2×cGMP standard curve was prepared in 0.1 M HCl and then diluted with an equal volume of 1 M Ammonium Acetate, with the following final concentrations in nM: 1024, 512, 256, 128, 64, 32, 16, 8, 4, 2, 1.cGMP concentrations were determined from each sample using the LC/MS conditions (Table 2 below) and calculated standard curve. EC50 values were calculated from concentration-response curves generated with GraphPad Prism Software.

[4] = top of concentration-response curve not fitted to 100%
[5] = top of concentration-response curve not fitted to 100%, read-out: HEK assay EC50-unconstrained

Row | SMILES | Enzyme Activity (increase at 30 μM with SNP) [1] | Enzyme Activity (increase at 30 μM without SNP) [2] | Emax [3, 4] | HEK MEC-10 [3] | EC50 ([3]; read-out: HEK assay EC50) | EC50 [3, 5]
1 | O=c1[nH]c(-c2cc(-c3ccon3)n(Cc3ccncc3F)n2)ncc1F [Compound 26] | A (no increase to <2 fold increase) | A (no increase to <2 fold increase) |  |  |  | 
2 | Nc1nc(-c2cc(-c3ncco3)n(Cc3ccccc3F)n2)ncc1NC(=O)C1(F)CC1 [Compound 31] | D (10 or <20 fold increase) | B (2 to <5 fold increase) | 80 to 100% | C (0.1 to <1 μM) | < 20 µM | 1 to 5 µM
3 | Fc1ccccc1Cn1nc(-c2ncccn2)c(F)c1-c1ccon1 [Compound 34] | D (10 or <20 fold increase) | B (2 to <5 fold increase) | 20 to 40% | D (1 to <10 μM) | 60 to 100 µM | 1 to 5 µM
4 | Oc1nc(-c2cc(-c3ccon3)n(Cc3ccccc3F)n2)ncc1Sc1ccccc1 [Compound 39, 2-(1-(2-fluorobenzyl)-5-(isoxazol-3-yl)-1H-pyrazol-3-yl)-5-(phenylthio)pyrimidin-4-ol] | E (20 to 30 fold increase) | D (10 or <20 fold increase) | 100 to 120% | A (0.001 to <0.01 μM) | < 20 µM | 0.01 to 0.5 µM
5 | Fc1cccnc1Cn1nc(-c2ncccn2)cc1-c1ccon1 [Compound 57] | A (no increase to <2 fold increase) | A (no increase to <2 fold increase) |  |  |  | 
6 | Fc1ncccc1Cn1nc(-c2ncccn2)cc1-c1ccon1 [Compound 66] | A (no increase to <2 fold increase) | A (no increase to <2 fold increase) |  |  |  | 

Other lines, results leading:

Row | Enzyme Activity (increase at 30 μM with SNP) [1] | Enzyme Activity (increase at 30 μM without SNP) [2] | Emax [3, 4] | HEK MEC-10 [3] | EC50 ([3]; read-out: HEK assay EC50) | EC50 [3, 5] | SMILES
7 | D (10 or <20 fold increase) | C (5 to <10 fold increase) | 60 to 80% | B (0.01 to <0.1 μM) |  |  | COc1nc(-c2cc(-c3ccon3)n(Cc3ccccc3F)n2)ncc1F [Compound 28]
8 | D (10 or <20 fold increase) | B (2 to <5 fold increase) | 40 to 60% | E (10 to 50 μM) | < 20 µM | 5 to 10 µM | CSc1cnc(-c2cc(-c3ccon3)n(Cc3ccccc3F)n2)nc1O [Compound 29, 2-(1-(2-fluorobenzyl)-5-(isoxazol-3-yl)-1H-pyrazol-3-yl)-5-(methylthio)pyrimidin-4-ol]
9 | C (5 to <10 fold increase) | B (2 to <5 fold increase) | 80 to 100% | D (1 to <10 μM) | < 20 µM | 5 to 10 µM | Oc1nc(-c2cc(-c3ccon3)n(Cc3ccccc3F)n2)ncc1-c1ncco1 [Compound 38]
10 | D (10 or <20 fold increase) | C (5 to <10 fold increase) | 80 to 100% | B (0.01 to <0.1 μM) | < 20 µM | 0.5 to 1 µM | Oc1nc(-c2cc(-c3ccon3)n(Cc3ccccc3)n2)ncc1F [Compound 41]
11 | D (10 or <20 fold increase) | B (2 to <5 fold increase) | 40 to 60% | C (0.1 to <1 μM) | < 20 µM | 0.5 to 1 µM | Oc1nc(-c2cc(-c3ccon3)n(Cc3ccccc3F)n2)ncc1-c1nccs1 [Compound 42]
12 | D (10 or <20 fold increase) | B (2 to <5 fold increase) | 40 to 60% | C (0.1 to <1 μM) | < 20 µM | 1 to 5 µM | Oc1nc(-c2cc(-c3ccon3)n(Cc3ccccc3F)n2)ncc1-c1ccccn1 [Compound 43]
